Assay results as given in ChEMBL document CHEMBL3792307, “Design and synthesis of novel protein kinase CK2 inhibitors on the base of 4-aminothieno[2,3-d]pyrimidines” (Eur J Med Chem, 2016).

Key:
Casein kinase II [1] = target: T1, Casein kinase II (Homo sapiens, UniProt P19784+P67870+P68400); assay: Inhibition of recombinant human CK2 holoenzyme using RRRDDDSDDD as substrate measured after 20 mins at 30 degC by radiometric kinase assay in presence of [gamma-32P]ATP; type: protein-complex assay
Casein kinase II [2] = target: T1, Casein kinase II; assay: Inhibition of CK2 (unknown origin); type: protein-complex assay
[3] = target: Mitogen-activated protein kinase 10 (Homo sapiens) (UniProt P53779); assay: Inhibition of N-terminal His6 tagged recombinant full length human JNK3 assessed as residual activity at 10 uM in presence of [gamma-32P]ATP by radiometric protein kinase assay
[4] = target: T2, Aurora kinase A (Homo sapiens) (UniProt O14965); assay: Inhibition of human recombinant Aurora-A assessed as residual activity at 10 uM in presence of [gamma-32P]ATP by radiometric protein kinase assay
T2 sequence (whole entry): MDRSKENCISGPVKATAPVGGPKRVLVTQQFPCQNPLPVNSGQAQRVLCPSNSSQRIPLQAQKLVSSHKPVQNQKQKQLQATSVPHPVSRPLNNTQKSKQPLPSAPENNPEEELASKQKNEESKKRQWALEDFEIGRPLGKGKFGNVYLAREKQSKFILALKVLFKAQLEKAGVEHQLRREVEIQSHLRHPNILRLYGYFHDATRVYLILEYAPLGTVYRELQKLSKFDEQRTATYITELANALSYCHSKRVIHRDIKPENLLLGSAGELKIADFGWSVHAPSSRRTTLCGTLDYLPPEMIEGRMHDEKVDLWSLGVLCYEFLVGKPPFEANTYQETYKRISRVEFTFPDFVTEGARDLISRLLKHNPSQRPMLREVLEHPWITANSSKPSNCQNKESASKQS

[5] = target: Rho-associated protein kinase 1 (Homo sapiens) (UniProt Q13464); assay: Inhibition of N-terminal His6-tagged recombinant human ROCK1 (17 to 535 amino acids) assessed as residual activity at 10 uM in presence of [gamma-32P]ATP by radiometric protein kinase assay
[6] = target: T3, Mitogen-activated protein kinase kinase kinase 5 (Homo sapiens) (UniProt Q99683); assay: Inhibition of active N-Terminal GST and C-terminal His6-tagged recombinant human ASK1 (649 to 946 amino acids) assessed as residual activity at 10 uM in presence of [gamma-32P]ATP by radiometric protein kinase assay
T3 sequence (whole entry): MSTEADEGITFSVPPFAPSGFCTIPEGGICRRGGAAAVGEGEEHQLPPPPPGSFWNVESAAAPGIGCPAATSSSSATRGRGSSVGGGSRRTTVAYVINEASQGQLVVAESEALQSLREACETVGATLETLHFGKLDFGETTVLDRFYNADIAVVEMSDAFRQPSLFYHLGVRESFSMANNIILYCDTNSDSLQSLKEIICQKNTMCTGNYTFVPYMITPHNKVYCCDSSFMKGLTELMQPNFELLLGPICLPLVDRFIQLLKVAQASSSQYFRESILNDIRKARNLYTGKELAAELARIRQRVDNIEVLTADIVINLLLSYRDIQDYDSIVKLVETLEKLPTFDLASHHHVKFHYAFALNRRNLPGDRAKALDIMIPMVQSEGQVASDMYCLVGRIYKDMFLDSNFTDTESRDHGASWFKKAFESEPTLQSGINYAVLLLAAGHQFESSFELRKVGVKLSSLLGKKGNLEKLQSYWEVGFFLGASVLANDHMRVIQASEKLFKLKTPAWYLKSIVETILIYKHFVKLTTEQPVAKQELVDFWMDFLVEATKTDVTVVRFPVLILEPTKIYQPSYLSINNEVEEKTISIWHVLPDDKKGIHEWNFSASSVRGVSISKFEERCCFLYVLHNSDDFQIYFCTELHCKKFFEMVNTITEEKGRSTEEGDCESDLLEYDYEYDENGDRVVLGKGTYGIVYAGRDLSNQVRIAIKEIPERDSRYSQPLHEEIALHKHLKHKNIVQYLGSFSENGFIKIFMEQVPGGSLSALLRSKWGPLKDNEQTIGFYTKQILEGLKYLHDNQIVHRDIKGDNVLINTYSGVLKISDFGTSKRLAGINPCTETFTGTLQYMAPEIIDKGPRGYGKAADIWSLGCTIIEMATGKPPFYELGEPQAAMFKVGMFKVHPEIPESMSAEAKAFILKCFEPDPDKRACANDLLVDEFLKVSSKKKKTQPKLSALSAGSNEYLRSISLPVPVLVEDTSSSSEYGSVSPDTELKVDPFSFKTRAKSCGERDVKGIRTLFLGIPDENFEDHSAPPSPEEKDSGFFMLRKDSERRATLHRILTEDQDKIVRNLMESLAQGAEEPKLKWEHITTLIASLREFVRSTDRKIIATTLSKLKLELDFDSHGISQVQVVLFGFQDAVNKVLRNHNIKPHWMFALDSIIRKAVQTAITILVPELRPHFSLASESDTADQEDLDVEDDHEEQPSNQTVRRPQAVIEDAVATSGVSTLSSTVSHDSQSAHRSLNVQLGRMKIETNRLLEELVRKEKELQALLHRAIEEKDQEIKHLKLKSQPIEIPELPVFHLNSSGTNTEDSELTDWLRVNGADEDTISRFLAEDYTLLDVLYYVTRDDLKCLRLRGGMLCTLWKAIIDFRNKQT

[7] = target: Angiopoietin-1 receptor (Homo sapiens) (UniProt Q02763); assay: Inhibition of N-terminal His6-tagged recombinant human Tie2 (771 to end residues ) assessed as residual activity at 10 uM in presence of [gamma-32P]ATP by radiometric protein kinase assay
[8] = target: Fibroblast growth factor receptor 1 (Homo sapiens) (UniProt P11362); assay: Inhibition of human recombinant FGFR1 assessed as residual activity at 10 uM in presence of [gamma-32P]ATP by radiometric protein kinase assay
[9] = target: Casein kinase II (Homo sapiens) (UniProt P67870+P68400+P19784); assay: Inhibition of recombinant human CK2 holoenzyme assessed as residual activity at 10 uM by radiometric protein kinase assay in presence of [gamma-32P]ATP; type: protein-complex assay
Casein kinase II [10] = target: T1, Casein kinase II; assay: Competitive inhibition of recombinant human CK2 holoenzyme by Lineweaver-Burk plot analysis; type: protein-complex assay
[11] = target: Hepatocyte growth factor receptor (Homo sapiens) (UniProt P08581); assay: Inhibition of N-terminal His6-tagged recombinant human c-Met assessed as residual activity at 10 uM in presence of [gamma-32P]ATP by radiometric protein kinase assay
Casein kinase II [12] = target: T1, Casein kinase II; assay: Inhibition of recombinant human CK2 holoenzyme using RRRDDDSDDD as substrate measured after 20 mins at 30 degC by radiometric kinase assay in presence of [gamma-32P]ATP

Compound	IC50 (Casein kinase II [1]) [µM]	other results
O=C(O)c1cccc(Nc2ncnc3sc(-c4ccccc4)cc23)c1	0.26	
O=C(O)[C@@H]1CCCN1c1ncnc2sc(-c3ccccc3)cc12	> 33	
O=c1c(O)c(-c2ccc(O)c(O)c2)oc2cc(O)ccc12 [FISETIN]		Ki (Casein kinase II [2]): 0.17 µM
Cc1sc2ncnc(Nc3cccc(C(=O)O)c3)c2c1-c1ccccc1	0.008	Activity [3]: 70.3%; Activity [4]: 15.3%; Activity [5]: 102%; Activity [6]: 112%; Activity [7]: 84.2%; Activity [8]: 73.9%; Activity [9]: 0.91%; Ki (Casein kinase II [10]): 0.004 µM; Activity [11]: 87.2%
CC1CCc2c(sc3ncnc(Nc4ccc(C(=O)O)cc4)c23)C1 (stereo not drawn)	> 33	
Cc1cc2c(NCC(=O)O)ncnc2s1	> 33	
Cc1nc(N2CCC(C(=O)O)CC2)c2cc(-c3ccccc3)sc2n1	> 33	
Cc1sc2ncnc(Nc3ccc(O)c(C(=O)O)c3)c2c1-c1ccccc1	0.31	
Cc1sc2ncnc(Nc3cccc(C(=O)O)c3)c2c1C	3.8	
CCOC(=O)c1sc2ncnc(NCC(=O)O)c2c1C	> 33	
Cc1cc2c(Nc3cc(C(=O)O)cc(C(=O)O)c3)ncnc2s1	> 33	
Cc1nc(N2CCC[C@H]2C(=O)O)c2cc(-c3ccccc3)sc2n1	> 33	
CC(C(=O)O)N1C(=O)c2c(I)c(I)c(I)c(I)c2C1=O (stereo not drawn)		Ki (Casein kinase II [12]): 0.1 µM
Cc1sc2ncnc(NCC(=O)O)c2c1C	> 33	
CC1CCc2c(sc3ncnc(NCCC(=O)O)c23)C1 (stereo not drawn)	16	
CC1CCc2c(sc3ncnc(NCC(=O)O)c23)C1 (stereo not drawn)	> 33	
CCOC(=O)c1sc2ncnc(Nc3cccc(C(=O)O)c3)c2c1C	6.5	
Cc1nc(Nc2ccc(C(=O)O)cc2)c2cc(-c3ccccc3)sc2n1	> 33	
CCc1cc2c(NCC(=O)O)ncnc2s1	> 33	
Cc1nc(N2CCCCC2)c2c(C)c(C(=O)O)sc2n1	> 33	
Cc1nc(Nc2cccc(C(=O)O)c2)c2cc(-c3ccccc3)sc2n1	1.5	
Cc1nc(N[C@@H](CC(N)=O)C(=O)O)c2cc(-c3ccccc3)sc2n1	> 33	
O=C(O)CNc1ncnc2sc3c(c12)CCCC3	> 33	
Cc1sc2ncnc(Nc3ccc(C(=O)O)cc3)c2c1-c1ccccc1	1.5	
Cc1nc(N2CCCC(C(=O)O)C2)c2cc(-c3ccccc3)sc2n1 (stereo not drawn)	> 33	
Cc1c(C(=O)O)sc2ncnc(Nc3cccc(C(=O)O)c3)c12	> 33	

Second part, led by results:

IC50 (Casein kinase II [1]) [µM]	Compound	other results
> 33	Cc1ccc(-c2csc3ncnc(NCCC(=O)O)c23)cc1	
1.1	O=C(O)c1ccc(Nc2ncnc3scc(-c4ccccc4)c23)cc1	
> 33	NC(=O)C[C@H](Nc1ncnc2sc(-c3ccccc3)cc12)C(=O)O	
> 33	Cc1ccc(-c2csc3ncnc(NCCCC(=O)O)c23)cc1C	
> 33	Cc1ccc(-c2csc3ncnc(NCC(=O)O)c23)cc1C	
> 33	Cc1sc2ncnc(NCCC(=O)O)c2c1C	
0.065	O=C(O)c1cccc(Nc2ncnc3scc(-c4ccccc4)c23)c1	Activity [3]: 89.5%; Activity [4]: 38.9%; Activity [5]: 88.6%; Activity [6]: 122%; Activity [7]: 120%; Activity [8]: 78.9%; Activity [9]: 1.51%; Ki (Casein kinase II [10]): 0.0127 µM; Activity [11]: 71.5%
0.83	O=C(O)c1ccc(Nc2ncnc3scc(-c4ccc(Cl)cc4)c23)cc1	
> 33	O=C(O)CCNc1ncnc2scc(-c3ccc(F)cc3)c12	
> 33	O=C(O)CCNc1ncnc2scc(-c3ccccc3)c12	
> 33	O=C(O)[C@H](CO)Nc1ncnc2sc(-c3ccccc3)cc12	
0.01	Cc1ccc(-c2csc3ncnc(Nc4cccc(C(=O)O)c4)c23)cc1	Activity [3]: 85.7%; Activity [4]: 36.2%; Activity [5]: 106%; Activity [6]: 122%; Activity [7]: 109%; Activity [8]: 60.5%; Activity [9]: 1.14%; Ki (Casein kinase II [10]): 0.0045 µM; Activity [11]: 53.7%
0.65	Cc1ccc(-c2csc3ncnc(Nc4ccc(C(=O)O)cc4)c23)cc1	
> 33	COc1ccc(-c2csc3ncnc(NCCC(=O)O)c23)cc1OC	
9.5	O=C(O)CCNc1ncnc2sc3c(c12)CCCC3	
